Test results as given in patent US8188078B2 (Sanofi-Aventis, priority 2007, dated 2012).

Columns and labels:
MET = target: T1, MET (Homo sapiens, UniProt P08581); test: Test C: inhibition of the autophosphorylation of MET, ELISA technique (pppY1230, 1234, 1235), MKN45 cells; type: cell-based
T1 construct: endogenous in cells; host or cells: MKN45 cells
Experimental: C) Inhibition of the Autophosphorylation of MET; ELISA Technique (pppY1230, 1234, 1235)
a) Cellular lysates: Sow the MKN45 cells in a 96-well plate (Cell coat BD polylysine) at 20 000 cells/well under 200 μl of medium RPMI+10% FCS+1% L-glutamine. Leave to adhere to the incubator for 24 h.
The cells are treated on the day after sowing with the products at 6 concentrations in duplicate for 1 h. At least 3 control wells are treated with the same amount of final DMSO.
Dilution of the products: Stock at 10 mM in pure DMSO—range from 10 mM to 30 μM with steps of 3 of pure DMSO—Intermediate dilutions to 1/50 in culture medium then taking of 10 μl added directly to the cells (200 μl): final range from 10000 to 30 nM.
At the end of incubation, carefully remove the supernatant and rinse with 200 μl of PBS. Then put 100 μl of lysis buffer directly in the wells on ice and incubate at 4° C. for 30 minutes. Lysis buffer: 10 mM Tris, HCl pH7.4, 100 mM NaCl, 1 mM EDTA, 1 mM EGTA, 1% Triton X-100, 10% glycerol, 0.1% SDS, 0.5% deoxycholate, 20 mM NaF, 2 mM Na3VO4, 1 mM PMSF and antiprotease cocktail.
The 100 μl of lysates are transferred to a V-bottomed polypropylene plate and ELISA is performed next or the plate is frozen at −80° C.
b) ELISA PhosphoMET BioSource Kit KH00281
In each well of the plate from the kit, add 70 μl of dilution buffer from the kit+30 μL of cell lysate or 30 μl of lysis buffer for the blank. Incubate for 2 h at room temperature, stirring gently.
Rinse the wells 4 times with 400 μl of washing buffer from the kit. Incubate with 100 μl of anti-phospho MET antibodies for 1 h at room temperature.
Rinse the wells 4 times with 400 μl of washing buffer from the kit. Incubate with 100 μl of anti-rabbit HRP antibodies for 30 minutes at room temperature (except for the wells with chromogen only).
Rinse the wells 4 times with 400 μl of washing buffer from the kit. Add 100 μL of chromogen and incubate for 30 minutes in the dark at room temperature.
Stop the reaction with 100 μl of stop solution. Read at once at […] 0.1 second in the Wallac Victor plate reader.
The products of formula (I) as defined above show cellular activity in this test between 10 nM and 10 μM.

MKN45 cells = test: Test D: cellular proliferation by 14C-thymidine pulse, MKN45 cells; type: cell-based; details: Homo sapiens, MKN-45, cellular proliferation by 14C-thymidine pulse; cell line not stated (HCT116 or MKN45)
Experimental: D) Measurement of Cellular Proliferation by 14C-Thymidine Pulse
The cells are sown in Cytostar 96-well plates under 180 μl for 4 hours at 37° C. and 5% CO2: The HCT116 cells at a rate of 2500 cells per well in DMEM medium+10% foetal calf serum+1% of L-glutamine and the MKN45 cells at a rate of 7500 cells per well in RPMI medium+10% foetal calf serum+1% of L-glutamine. After said incubation for 4 hours, the products are added under 10 μl in 20-times concentrated solution according to the method of dilution stated for ELISA. The products are tested at 10 concentrations in duplicate from 10000 nM to 0.3 nM in steps of 3.
After treatment for 72 h, add 10 μl of 14C-thymidine at 10 μCi/ml to obtain 0.1 μCi per well. The incorporation of 14C-thymidine is measured on a Micro-Beta (Perkin-Elmer) after 24 hours of pulse and 96 h of treatment.
All the stages of the test are automated on the BIOMEK 2000 or TECAN stations.

c-MET = target: T2, c-MET (Homo sapiens, UniProt P08581); test: Test A: HTRF Met test in 96-well format; type: biochemical
T2 construct: The recombinant DNA His-Tev-MET (956-1390) in pFastBac(Invitrogen); His (N, cleaved yes); Tev (TEV protease site) (N, cleaved yes); made in house; host or cells: SF21 insect cells (baculovirus, pFastBac)
T2 sequence (P08581 956-1390): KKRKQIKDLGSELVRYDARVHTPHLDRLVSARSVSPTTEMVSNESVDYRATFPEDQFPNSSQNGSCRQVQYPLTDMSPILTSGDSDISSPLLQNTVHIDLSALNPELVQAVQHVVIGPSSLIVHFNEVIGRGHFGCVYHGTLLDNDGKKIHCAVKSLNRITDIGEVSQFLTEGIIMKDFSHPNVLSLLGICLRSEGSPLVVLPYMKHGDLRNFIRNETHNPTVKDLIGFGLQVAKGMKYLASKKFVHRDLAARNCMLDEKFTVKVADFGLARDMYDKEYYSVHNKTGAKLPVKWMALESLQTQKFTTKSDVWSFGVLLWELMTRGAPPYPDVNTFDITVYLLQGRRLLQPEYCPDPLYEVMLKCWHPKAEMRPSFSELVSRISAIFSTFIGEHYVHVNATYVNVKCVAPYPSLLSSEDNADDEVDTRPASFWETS
Experimental: I) Expression and Purification of MET, Cytoplasmic Domain
The recombinant DNA His-Tev-MET (956-1390) in pFastBac(Invitrogen) is transfected in insect cells and after several stages of viral amplification, the final stock of baculovirus is tested for expression of the protein of interest.
After infection for 72 h at 27° C. with the recombinant virus, the SF21 cell cultures are harvested by centrifugation and the cellular deposits are stored at −80° C.
The cellular deposits are resuspended in the lysis buffer (buffer A [50 mM HEPES, pH 7.5, 250 mM NaCl, Glycerol 10%, TECP 1 mM]; +cocktail of protease inhibitors Roche Diagnostics without EDTA, ref 1873580), stirred at 4° C. until homogeneous, then lysed mechanically using apparatus of the “Dounce” type.
After centrifugation, the lysis supernatant is incubated for 2 h at 4° C. with Nickel Chelate resin (His-Trap 6 Fast Flow™, GE HealthCare). After washing with 20 volumes of Tp A, the suspension is packed in a column, and the proteins are eluted with a gradient of buffer B ([…]+290 mM imidazole).
The fractions containing the protein of interest with a view to electrophoretic analysis (SDS PAGE) are collected, concentrated by ultrafiltration (cut-off 10 kDa) and injected in an exclusion chromatography column (Superdex™ 200, GE HealthCare) equilibrated with buffer A.
After enzymatic cleavage of the tag Histidine, the protein is reinjected in a new IMAC Nickel Chelate chromatography column (His-Trap 6 Fast Flow™, GE HealthCare) equilibrated with Buffer A. The fractions eluted with a gradient of buffer B and containing the protein of interest after electrophoresis (SDS PAGE), are finally collected and stored at −80° C.
For the production of autophosphorylated protein, the preceding fractions are incubated for 1 h at room temperature after adding ATP 2 mM, MgCl2 2 mM, and Na3VO4 4 mM. After stopping the reaction with 5 mM of EDTA, the reaction mixture is injected in a HiPrep desalting column (GE HealthCare) equilibrated beforehand with buffer A+Na3VO4 4 mM; the fractions containing the protein of interest (SDS PAGE analysis) are collected and stored at −80° C. The degree of phosphorylation is verified by mass spectrometry (LC-MS), and by peptide mapping.
A) HTRF Met test in 96-well format
In a final volume of 50 μl of enzymatic reaction mixture, final c-MET 5 nM is incubated in the presence of the molecule to be tested (for a final concentration range from 0.17 nM to 10 μM, final DMSO 3%) in buffer MOPS 10 mM pH 7.4, DTT 1 mM, Tween 20 0.01%. The reaction is initiated by the substrate solution to obtain the final concentrations of poly-(GAT) 1 μg/ml, ATP 10 μM and MgCl2 5 mM. After incubation for 10 min at room temperature, the reaction is stopped with a mix of 30 μl to obtain a final solution of Hepes 50 mM pH 7.5, potassium fluoride 500 mM, BSA 0.1% and EDTA 133 mM in the presence of 80 ng Streptavidin 61SAXLB Cis-Bio Int. and 18 ng anti-phosphotyrosine Mab PT66-Europium Cryptate per well. After 2 hours of incubation at room temperature, reading is carried out at 2 wavelengths 620 nm and 665 nm in a reader for the TRACE/HTRF technique and the percentage inhibition is calculated according to the 665/620 ratios.

T1 sequence (P08581 25-1390): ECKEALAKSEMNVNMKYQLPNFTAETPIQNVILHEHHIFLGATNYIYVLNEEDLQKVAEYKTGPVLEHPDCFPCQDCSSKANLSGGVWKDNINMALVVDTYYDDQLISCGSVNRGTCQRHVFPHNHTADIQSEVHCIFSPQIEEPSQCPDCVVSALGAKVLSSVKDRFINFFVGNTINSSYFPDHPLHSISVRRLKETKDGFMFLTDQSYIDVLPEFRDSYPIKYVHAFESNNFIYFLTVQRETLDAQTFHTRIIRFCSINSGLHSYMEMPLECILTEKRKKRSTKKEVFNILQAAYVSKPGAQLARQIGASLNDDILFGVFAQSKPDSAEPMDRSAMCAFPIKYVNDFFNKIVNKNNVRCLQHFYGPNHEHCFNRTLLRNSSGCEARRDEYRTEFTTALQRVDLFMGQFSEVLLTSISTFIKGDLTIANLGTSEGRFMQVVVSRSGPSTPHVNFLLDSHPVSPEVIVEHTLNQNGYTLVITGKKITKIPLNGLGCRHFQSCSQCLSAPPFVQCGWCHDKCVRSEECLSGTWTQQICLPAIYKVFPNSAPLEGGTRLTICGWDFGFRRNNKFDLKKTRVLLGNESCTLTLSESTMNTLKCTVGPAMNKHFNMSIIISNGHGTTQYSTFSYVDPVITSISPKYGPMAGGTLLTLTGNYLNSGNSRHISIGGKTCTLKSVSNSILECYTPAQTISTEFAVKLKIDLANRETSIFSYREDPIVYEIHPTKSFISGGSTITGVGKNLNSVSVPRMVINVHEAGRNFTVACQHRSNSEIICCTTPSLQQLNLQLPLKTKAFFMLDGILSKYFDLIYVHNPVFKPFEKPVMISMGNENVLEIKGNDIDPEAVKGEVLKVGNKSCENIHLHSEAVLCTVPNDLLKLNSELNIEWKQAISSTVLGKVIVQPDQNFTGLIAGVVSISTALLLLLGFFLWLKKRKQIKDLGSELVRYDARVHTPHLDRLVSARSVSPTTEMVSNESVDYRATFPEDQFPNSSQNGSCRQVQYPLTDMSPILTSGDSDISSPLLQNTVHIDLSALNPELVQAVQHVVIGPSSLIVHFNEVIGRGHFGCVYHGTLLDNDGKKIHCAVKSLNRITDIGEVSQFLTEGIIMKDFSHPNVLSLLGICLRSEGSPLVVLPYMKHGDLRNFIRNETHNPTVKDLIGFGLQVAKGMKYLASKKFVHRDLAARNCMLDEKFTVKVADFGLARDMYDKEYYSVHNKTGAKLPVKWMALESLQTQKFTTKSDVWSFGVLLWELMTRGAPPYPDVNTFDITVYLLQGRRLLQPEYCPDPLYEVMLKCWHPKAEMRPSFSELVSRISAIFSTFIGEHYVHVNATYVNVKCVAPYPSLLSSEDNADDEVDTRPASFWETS

| IC50 (MET) | melting point | IC50 (MKN45 cells) | IC50 (c-MET) | Compound |
| --- | --- | --- | --- | --- |
| < 500 nM | 177 to 184 °C | 500 to 10000 nM | < 100 nM | CC(C)OCCNC(=O)Nc1nc2cc(F)c(OC(C)c3c(Cl)ccc(F)c3Cl)cc2s1 (stereo not drawn) [Example 92, 1-{6-[1-(2,6-dichloro-3-fluorophenyl)ethoxy]-5-fluoro-1,3-benzothiazol-2-yl}-3-(2-isopropoxyethyl)urea] |
|  | 175 °C | > 10000 nM | 100 to 10000 nM | Nc1nc2ccc(OCc3c(F)cccc3Cl)cc2s1 [Example 8, 6-[(2-chloro-6-fluorobenzyl)oxy]-1,3-benzothiazol-2-amine] |
| < 500 nM | 166 to 167 °C | 500 to 10000 nM | < 100 nM | CCOCCNC(=O)Nc1nc2cc(F)c(OC(C)c3c(Cl)ccc(F)c3Cl)cc2s1 (stereo not drawn) [Example 86, 1-{6-[1-(2,6-dichloro-3-fluorophenyl)ethoxy]-5-fluoro-1,3-benzothiazol-2-yl}-3-(2-ethoxyethyl)urea] |
|  | 186 to 194 °C | > 10000 nM | 100 to 10000 nM | CC(Oc1ccc2nc(N)sc2c1)c1c(Cl)ccc(F)c1Cl (stereo not drawn) [Example 23, 6-[1-(2,6-dichloro-3-fluorophenyl)ethoxy]-1,3-benzothiazol-2-amine] |
| < 500 nM | 270 to 276 °C | 500 to 10000 nM | < 100 nM | Cc1cc2nc(NC(=O)NCCN3CCOCC3)sc2cc1OC(C)c1c(Cl)ccc(F)c1Cl (stereo not drawn) [Example 107, 1-{6-[1-(2,6-dichloro-3-fluorophenyl)ethoxy]-5-methyl-1,3-benzothiazol-2-yl}-3-[2-(morpholin-4-yl)ethyl]urea] |
| 500 to 10000 nM | 200 °C | 500 to 10000 nM | < 100 nM | CCC(Oc1ccc2nc(NC(=O)NCCN3CCOCC3)sc2c1)c1c(Cl)cccc1Cl (stereo not drawn) [Example 122, 1-{6-[1-(2,6-dichlorophenyl)propoxy]-1,3-benzothiazol-2-yl}-3-[2-(morpholin-4-yl)ethyl]urea] |
| < 500 nM | 186 to 189 °C | < 500 nM | < 100 nM | CC(Oc1cc2sc(NC(=O)C3CC3)nc2cc1F)c1c(Cl)ccc(F)c1Cl (stereo not drawn) [Example 67, N-{6-[1-(2,6-dichloro-3-fluorophenyl)ethoxy]-5-fluoro-1,3-benzothiazol-2-yl}cyclopropanecarboxamide] |
| 500 to 10000 nM | 62 to 67 °C | 500 to 10000 nM | < 100 nM | COCCN(C)C(=O)Nc1nc2cc(F)c(OC(C)c3c(Cl)ccc(F)c3Cl)cc2s1 (stereo not drawn) [Example 93, 3-{6-[1-(2,6-dichloro-3-fluorophenyl)ethoxy]-5-fluoro-1,3-benzothiazol-2-yl}-1-(2-methoxyethyl)-1-methylurea] |
|  | 193 °C | > 10000 nM | 100 to 10000 nM | O=C(NCCN1CCOCC1)Nc1nc2ccc(OCc3cc(Cl)nc(Cl)c3)cc2s1 [Example 16, 1-{6-[(2,6-dichloropyridin-4-yl)methoxy]-1,3-benzothiazol-2-yl}-3-(2-morpholin-4-ylethyl)urea] |
|  | 170 °C | > 10000 nM | 100 to 10000 nM | Cc1ccc(F)c(C(C)Oc2ccc3nc(N)sc3c2)c1Cl (stereo not drawn) [Example 27, 6-[1-(2-chloro-6-fluoro-3-methylphenyl)ethoxy]-1,3-benzothiazol-2-amine] |
| 500 to 10000 nM | 215 °C | > 10000 nM | < 100 nM | O=C(Nc1nc2cc(F)c(OCc3c(Cl)cccc3Cl)cc2s1)C1CC1 [Example 22, N-{6-[(2,6-dichlorobenzyl)oxy]-5-fluoro-1,3-benzothiazol-2-yl}cyclopropanecarboxamide] |
| 500 to 10000 nM | 178 to 198 °C | 500 to 10000 nM | < 100 nM | CC(Oc1cc2sc(NC(=O)NCCn3cccc3)nc2cc1F)c1c(Cl)ccc(F)c1Cl (stereo not drawn) [Example 91, 1-{6-[1-(2,6-dichloro-3-fluorophenyl)ethoxy]-5-fluoro-1,3-benzothiazol-2-yl}-3-[2-(1H-pyrrol-1-yl)ethyl]urea] |
| 500 to 10000 nM | 154 °C | > 10000 nM | 100 to 10000 nM | CC(Oc1ccc2nc(NC(=O)NCCN3CCOCC3)sc2c1)c1c(F)ccc(Cl)c1F (stereo not drawn) [Example 63, 1-{6-[1-(3-chloro-2,6-difluorophenyl)ethoxy]-1,3-benzothiazol-2-yl}-3-(2-morpholin-4-ylethyl)urea] |
